Assay results from PubChem BioAssay (NCI).
Several values for one entry are separate records, joined by “and”; a condition that tells them apart may be missing. Identical values can stand only once.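 How tested: cells in 96-well plates exposed to compound for 48 hours at five concentrations. Here, GI50 denotes the concentration required for 50% inhibition of growth. The concentration for full growth arrest is given as TGI.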

Legend:
Assay in all cases: NCI tumour cell line growth inhibition, 48 h
OVCAR-8 ovarian = system: OVCAR-8 ovarian
U251 CNS = system: U251 CNS
CAKI-1 renal = system: CAKI-1 renal
MDA-MB-435 = system: MDA-MB-435
HOP-92 NSCLC = system: HOP-92 NSCLC
HOP-62 NSCLC = system: HOP-62 NSCLC
CCRF-CEM leukemia = system: CCRF-CEM leukemia
T-47D breast = system: T-47D breast
COLO 205 colon = system: COLO 205 colon
SF-268 CNS = system: SF-268 CNS

| SMILES | TGI (OVCAR-8 ovarian) [µM] | TGI (U251 CNS) | TGI (CAKI-1 renal) [µM] | TGI (MDA-MB-435) [µM] | TGI (HOP-92 NSCLC) [µM] | TGI (HOP-62 NSCLC) [µM] | TGI (CCRF-CEM leukemia) | TGI (T-47D breast) | TGI (COLO 205 colon) [µM] | TGI (SF-268 CNS) | GI50 (OVCAR-8 ovarian) [µM] | GI50 (U251 CNS) [µM] | GI50 (CAKI-1 renal) [µM] | GI50 (MDA-MB-435) [µM] | GI50 (HOP-92 NSCLC) [µM] | GI50 (HOP-62 NSCLC) [µM] | GI50 (CCRF-CEM leukemia) | GI50 (T-47D breast) [µM] | GI50 (SF-268 CNS) [µM] | GI50 (COLO 205 colon) |
| --- | --- | --- | --- | --- | --- | --- | --- | --- | --- | --- | --- | --- | --- | --- | --- | --- | --- | --- | --- | --- |
| O=c1c2cc(O)c(O)cc2oc2cc(O)c(C3OC(CO)C(O)C(O)C3O)c(O)c12 (stereo unspecified) | > 100 | > 100 µM | > 100 | > 100 | > 100 | > 100 | > 100 µM | > 100 µM | > 100 | > 100 µM |  |  |  |  |  |  |  |  |  |  |
| C#Cc1ccc(-n2c(/C=C/c3ccc4ccccc4c3)nc3ncccc3c2=O)cc1 | > 100 | > 100 µM | > 100 | > 100 | 6.89 | > 100 | > 100 µM | > 100 µM |  | > 100 µM | 3.05 | 3.69 | 2.98 | 2.06 | 1.63 | 7.45 | 1.53 µM | 3.9 | 2.6 |  |
| COc1cc2c(cc1O)C1CC(CC3CCCCN31)OC(=O)/C=C\c1ccc(O)c-2c1 (stereo unspecified) | 54.2 | > 100 µM | 66.4 | 50.8 | 97.9 |  | 90.5 µM | 45.7 µM | 83.1 | 72.3 µM |  |  |  |  |  |  |  |  |  |  |
| CCN(CCO)CCCOc1ccc2c(Nc3cc(CC(=O)Nc4cccc(F)c4)[nH]n3)ncnc2c1 | > 100 | 29.4 µM and > 10 µM | > 100 | 34 | 33.3 | > 88.6 | 47.9 µM and > 5.1 µM | 42.7 µM and > 2.45 µM | 1.22 | 32.2 µM and > 10 µM | 23.8 | 13.7 | > 36.5 | 14.1 | 10.6 | 16.3 | < 0.01 µM and 0.0047 µM | 13.9 | 9.62 | 0.034 µM and 0.0244 µM |
| COc1ccc(/C=C2/CN(CCC#N)C/C(=C\c3ccc(OC)cc3)C2=O)cc1 | > 100 | 5.1 µM | > 100 | > 100 | 20.8 | 4.79 | > 100 µM | > 100 µM | 3.5 | 36.7 µM | 3.05 | 2.1 | 2.82 | 2.99 | 1.85 | 2.17 | 2.46 µM | 3.76 | 3.27 | 1.91 µM |
| COC(=O)C1(C)CCCC2(C)c3cc(OC)ccc3C(=O)C(Br)C12 (stereo unspecified) | 4.54 | > 10 µM | > 10 | > 10 | > 10 | > 10 | 6.59 µM | > 10 µM | 7.29 | > 10 µM |  |  |  |  |  |  |  |  |  |  |
| CC[C@@]1(O)C(=O)NCc2c1cc1n(c2=O)Cc2cc3c(NC(C)=O)cccc3nc2-1 | > 100 | > 100 µM | > 100 | > 100 | > 100 | > 100 | > 100 µM | > 100 µM | > 100 | > 100 µM | > 100 | > 100 | > 100 | > 100 | > 100 | > 100 | > 100 µM | > 100 | > 100 | > 100 µM |
| COC(=O)[C@]12CC[C@@H](C)[C@H](C)[C@@H]1C1=CC[C@@H]3[C@@]4(C)CC(=O)[C@H](O)[C@@](C)(CO)[C@@H]4C(=O)C[C@@]3(C)[C@]1(C)CC2 | 22.6 | 25.1 µM | 24 | 25.1 | 30.1 | 27.4 | 28.7 µM | 26.4 µM | 29.5 | 26.5 µM | 4.89 | 11.7 | 11.5 | 12.6 | 15.3 | 13.3 | 3.38 µM | 2.44 | 12.6 | 14.3 µM |
| O=C(Nc1ccccc1)Nc1ccc(Cl)c(Cl)c1 | 79.3 | 20.8 µM | 24.7 | 33.9 | 6.12 | > 100 | > 100 µM | > 100 µM | 11.1 | > 100 µM | 3.2 | 3.23 | 2.71 | 3.26 | 1.52 | 5.84 | 4.87 µM | 2.57 | 4.76 | 3.04 µM |
| O=C(/C=C/c1ccccc1)OCC1=C[C@@H](O)[C@@H]2C=CO[C@@H](OC3OC(CO)C(O)C(O)C3O)[C@H]12 (stereo partly specified) | > 100 | > 100 µM | > 100 | > 100 | > 100 | > 100 | > 100 µM | > 100 µM | > 100 | > 100 µM |  |  |  |  |  |  |  |  |  |  |
| COc1cc(NC(=O)c2ccccc2Nc2ccnc(C(F)(F)F)c2)cc(OC)c1OC | > 100 | > 100 µM | > 100 | > 100 | 74.1 | > 100 | > 100 µM | 91.9 µM | > 100 | > 100 µM | 69.6 | 82.7 | 50.4 | 63.3 | 23.2 | 88.9 | 50.7 µM | 17.7 | > 100 | 41.9 µM |
| CC/C(=N/N=C(N)N)c1ccc(NC(=O)Nc2ccc(/C(CC)=N/N=C(N)N)cc2)cc1 | > 100 | 12.2 µM | 39.4 | 16.2 | 35.2 | 42.6 | 28.7 µM | 74.1 µM | 21.2 | > 100 µM | 5.95 | 2.64 | 15.1 | 3.72 | 5.67 | 10.7 | 5.8 µM | 5.81 | 12.8 | 3.25 µM |
| COc1c2ccccc2c(O)c2c(=O)ccn(C)c12 | 38.1 | 13.4 µM | 52.9 | 4.32 | 91.1 | 33 | > 100 µM | > 100 µM | > 100 | > 68.9 µM | 4.42 | 2.67 | 8.59 | 2.03 | 25.6 | 5.48 | 26.8 µM | 31.7 | 16.5 | 7.7 µM |
| Cc1cc2c(cc1Cl)N1C(=O)NS(=O)(=O)N=C1NS2(=O)=O | > 100 | > 100 µM | > 100 | > 100 | > 100 | > 100 | > 100 µM | > 100 µM | > 100 | > 100 µM | > 100 | > 100 | > 100 | > 100 | > 100 | > 100 | > 100 µM | > 100 | > 100 | > 100 µM |
| CCOC(=O)c1cc(-c2ccccc2)[nH]c1N/N=C/c1c(Cl)cccc1Cl | > 100 | > 60.4 µM | 31.1 | 2.83 | 62.4 | 41.4 | 13.5 µM | > 100 µM | 15.3 | > 100 µM | 4.77 | 1.25 | 0.409 | 0.272 | 2.02 | 2.37 | 2.3 µM | > 21.2 | 1.14 | 2.71 µM |
| C=C1C(=O)C2(C)OC2(C)C1C(=O)O (stereo unspecified) | > 100 | > 100 µM | > 100 | > 100 | > 100 | > 100 | > 100 µM | > 100 µM | > 100 | > 100 µM |  |  |  |  |  |  |  |  |  |  |
| O=C1NC(=N[C@H](CO)c2ccccc2)S/C1=C\c1ccc2ncccc2c1 | > 25 | > 19.8 µM | > 16 | > 25 | 18.7 | > 25 | 16.7 µM | > 24.1 µM | > 25 | > 25 µM | 5.27 | 1.96 | 3.75 | 5.37 | 4.59 | 6.73 | 4.63 µM | 4.18 | 3.82 | 3.54 µM |
| N=C1C(c2nc3ccccc3s2)=C(O)CN1c1cc(Cl)cc(Cl)c1 | > 100 | > 100 µM | > 100 | > 100 | > 100 | > 100 | > 100 µM | > 100 µM | > 100 | > 100 µM | > 100 | 32.3 | > 100 | > 100 | 59.3 | 46.7 | > 100 µM | > 100 | 32.3 | > 100 µM |
| CC(=O)C(C=O)C(C)=O.CC(=O)CC(C)=O.CC(=O)CC(C)=O.[Ru] | > 100 | > 100 µM | 72.4 | > 100 | 94.1 | > 100 | 21.8 µM | > 100 µM | > 100 | > 100 µM | 17.4 | 29.1 | 27.5 | 43.5 | 17.4 | 32.4 | 5.62 µM | 32.7 | 34.8 | 29.9 µM |
| FC(F)(F)c1ccc(NCc2nc3ccccc3[nH]2)cc1 | > 100 | > 100 µM | 49.4 | 74.6 | 36.8 | 96.4 | > 100 µM | 80.6 µM | 34.3 | > 100 µM | 27.5 | 27.5 | 19.4 | 22.4 | 12.9 | 28.8 | 32.5 µM | 26.5 | 40.8 | 19.2 µM |
| COc1ccc(/C=C2\CCC(Cc3ccccc3)(CN(C)C)C2=O)cc1 (stereo unspecified) | > 100 | > 100 µM | > 100 | > 100 | > 100 | > 100 | 72.3 µM | > 100 µM | > 74.8 | > 100 µM |  |  |  |  |  |  |  |  |  |  |
| N#Cc1c(N)c(C#N)c2c(c1-c1ccc(Cl)cc1)COc1ccc(F)cc1-2 | > 50 | > 50 µM | > 50 | > 50 | > 50 |  | > 50 µM | > 50 µM | > 50 |  | > 50 | 22 | 21 | > 50 | > 50 |  | > 50 µM | > 50 |  | > 50 µM |
| CC(C)[C@H](C(=O)O[C@@H]1/C=C/C(=O)O[C@@H](C)CCC/C=C/[C@@H]2C[C@H](O)C[C@H]21)N(C)C | > 68.9 | > 100 µM | > 73.8 | > 55.8 | 96.4 | > 100 | 75 µM | > 100 µM | 9.67 | 41.9 µM | 13.2 | 20.3 | 19.4 | 5.84 | 36.4 | 17.2 | 6.05 µM | 31 | 5.25 | 3.49 µM |
| COc1ccc2c(c1)C(=O)c1c-2c(N2CCN(C(=O)CCNCCNCCO)CC2)nc2ccccc12 | 48.3 | 33.8 µM | 53.3 | 47.8 | 18.2 |  | 23.7 µM | 29.8 µM | 29.8 | 36.9 µM | 19.5 | 15.8 | 24 | 21.7 | 3.77 |  | 5.32 µM | 13.4 | 14.3 | 12.4 µM |
| COc1cc(/C=C/c2ccccn2)cc(OC)c1OC | > 10 | > 10 µM | > 10 | > 10 | > 10 | > 10 | > 10 µM | > 10 µM | > 10 | > 10 µM |  |  |  |  |  |  |  |  |  |  |
| Fc1ccc(C2C3CCOc4c(ccc5ccccc45)C3=NN2c2ccccc2)cc1 (stereo unspecified) | > 100 | > 100 µM | > 100 | > 100 | > 100 | > 100 | > 74.4 µM | > 94.8 µM | > 100 | > 100 µM | > 60.2 | 56.1 | 64.2 | > 100 | > 84.6 | > 100 | 16.6 µM | 25.4 | > 77.9 | > 100 µM |
| COc1cc(Cn2c(SCC(=O)Nc3ccc(Cl)cc3)nc3ccccc3c2=O)cc(OC)c1OC | 16.1 | 11.1 µM | 58.1 | > 100 | 9.12 | 14.5 | > 100 µM | 8.21 µM | > 100 | 24.8 µM | 4.82 | 3.14 | 11.3 | 22.8 | 2.26 | 3.1 | > 100 µM | 2.16 | 6.61 | 73.2 µM |
